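Briefly, cells in 96-well plates were exposed to five compound concentrations for 48 h, and endpoints were estimated by linear interpolation. GI50: concentration for 50% inhibition of growth. The concentration for full growth arrest is given as TGI.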
How the values were obtained:
Assay in all cases: growth of human tumour cells (NCI), 48 h; in the data active = GI50 below about 0.43 µM; inactive = the rest
786-0 renal = system: 786-0 renal
A498 renal = system: A498 renal
A549 NSCLC = system: A549 NSCLC
ACHN renal = system: ACHN renal
BT-549 breast = system: BT-549 breast
CAKI-1 renal = system: CAKI-1 renal
CCRF-CEM leukemia = system: CCRF-CEM leukemia
COLO 205 colon = system: COLO 205 colon
DU-145 prostate = system: DU-145 prostate
EKVX NSCLC = system: EKVX NSCLC
HCC-2998 colon = system: HCC-2998 colon
HCT-116 colon = system: HCT-116 colon
HCT-15 colon = system: HCT-15 colon
HOP-62 NSCLC = system: HOP-62 NSCLC
HOP-92 NSCLC = system: HOP-92 NSCLC
HS 578T breast = system: HS 578T breast
HT29 colon = system: HT29 colon
IGROV1 ovarian = system: IGROV1 ovarian
K-562 leukemia = system: K-562 leukemia
KM12 colon = system: KM12 colon
LOX IMVI melanoma = system: LOX IMVI melanoma
M14 melanoma = system: M14 melanoma
MALME-3M melanoma = system: MALME-3M melanoma
MCF7 breast = system: MCF7 breast
MDA-MB-231 breast = system: MDA-MB-231 breast
MDA-MB-435 = system: MDA-MB-435
MOLT-4 leukemia = system: MOLT-4 leukemia
NCI-H226 lung = system: NCI-H226 lung
NCI-H23 lung = system: NCI-H23 lung
NCI-H460 lung = system: NCI-H460 lung
NCI-H522 lung = system: NCI-H522 lung
NCI/ADR-RES ovarian = system: NCI/ADR-RES ovarian
OVCAR-3 ovarian = system: OVCAR-3 ovarian
OVCAR-4 ovarian = system: OVCAR-4 ovarian
OVCAR-5 ovarian = system: OVCAR-5 ovarian
OVCAR-8 ovarian = system: OVCAR-8 ovarian
PC-3 prostate = system: PC-3 prostate
RPMI-8226 leukemia = system: RPMI-8226 leukemia
RXF 393 renal = system: RXF 393 renal
SF-268 CNS = system: SF-268 CNS
SF-539 CNS = system: SF-539 CNS
SK-MEL-2 melanoma = system: SK-MEL-2 melanoma
SK-MEL-28 melanoma = system: SK-MEL-28 melanoma
SK-MEL-5 melanoma = system: SK-MEL-5 melanoma
SK-OV-3 ovarian = system: SK-OV-3 ovarian
SN12C renal = system: SN12C renal
SNB-19 CNS = system: SNB-19 CNS
SNB-75 CNS = system: SNB-75 CNS
SW-620 colon = system: SW-620 colon
T-47D breast = system: T-47D breast
TK-10 renal = system: TK-10 renal
U251 CNS = system: U251 CNS
UACC-257 melanoma = system: UACC-257 melanoma
UACC-62 melanoma = system: UACC-62 melanoma
UO-31 renal = system: UO-31 renal

Nc1ccc(-c2ccc(-c3nc4ccccc4[nH]3)cc2)cc1
56.6 µM: TGI (HOP-62 NSCLC)
39.9 µM: TGI (RPMI-8226 leukemia)
84.9 µM: TGI (786-0 renal)
97.5 µM: TGI (OVCAR-8 ovarian)
40.9 µM: TGI (NCI-H226 lung)
56.8 µM: TGI (PC-3 prostate)
> 61.6 µM: TGI (BT-549 breast)
> 76.3 µM: TGI (NCI/ADR-RES ovarian)
3.61 µM: TGI (UACC-62 melanoma)
> 82.4 µM: TGI (IGROV1 ovarian)
> 58.2 µM: TGI (MOLT-4 leukemia)
21.6 µM: TGI (HT29 colon)
> 54.7 µM: TGI (CAKI-1 renal)
> 52.7 µM: TGI (MALME-3M melanoma)
> 90.6 µM: TGI (NCI-H23 lung)
69.4 µM: TGI (SNB-75 CNS)
active: GI50 (COLO 205 colon) 0.32 µM | GI50 (HCC-2998 colon) 0.105 µM | GI50 (K-562 leukemia) 0.117 µM | GI50 (KM12 colon) < 0.0248 µM | GI50 (M14 melanoma) 0.0328 µM | GI50 (MDA-MB-435) < 0.0192 µM | GI50 (NCI-H460 lung) 0.196 µM | GI50 (SF-539 CNS) 0.208 µM | GI50 (SW-620 colon) < 0.0506 µM
> 100 µM: TGI (A498 renal) | TGI (DU-145 prostate) | TGI (HCT-116 colon) | TGI (HCT-15 colon) | TGI (HS 578T breast) | TGI (K-562 leukemia) | TGI (LOX IMVI melanoma) | TGI (M14 melanoma) | TGI (MCF7 breast) | TGI (MDA-MB-231 breast) | TGI (MDA-MB-435) | TGI (OVCAR-5 ovarian) | TGI (SF-268 CNS) | TGI (SK-MEL-2 melanoma) | TGI (SK-MEL-28 melanoma) | TGI (SK-MEL-5 melanoma) | TGI (SK-OV-3 ovarian) | TGI (SN12C renal) | TGI (SNB-19 CNS) | TGI (SW-620 colon) | TGI (T-47D breast) | TGI (TK-10 renal) | TGI (UACC-257 melanoma) | TGI (UO-31 renal)
40.1 µM: TGI (OVCAR-3 ovarian)
inactive: GI50 (786-0 renal) 8.78 µM | GI50 (A498 renal) 33.6 µM | GI50 (ACHN renal) 13.6 µM | GI50 (BT-549 breast) 13.2 µM | GI50 (CCRF-CEM leukemia) 2.77 µM | GI50 (DU-145 prostate) 10.6 µM | GI50 (EKVX NSCLC) 1.47 µM | GI50 (HCT-116 colon) 2.45 µM | GI50 (HCT-15 colon) 8.09 µM | GI50 (HOP-62 NSCLC) 3.83 µM | GI50 (HOP-92 NSCLC) 18.6 µM | GI50 (HS 578T breast) 31.1 µM | GI50 (HT29 colon) 0.606 µM | GI50 (IGROV1 ovarian) 26.2 µM | GI50 (MALME-3M melanoma) 7.19 µM | GI50 (MCF7 breast) 0.765 µM | GI50 (MDA-MB-231 breast) 29.6 µM | GI50 (MOLT-4 leukemia) 9.94 µM | GI50 (NCI-H226 lung) 4.26 µM | GI50 (NCI-H23 lung) 10.6 µM | GI50 (NCI-H522 lung) 1.1 µM | GI50 (NCI/ADR-RES ovarian) 21.3 µM | GI50 (OVCAR-3 ovarian) 1.2 µM | GI50 (OVCAR-4 ovarian) 21.1 µM | GI50 (OVCAR-5 ovarian) > 75.9 µM | GI50 (OVCAR-8 ovarian) 14.1 µM | GI50 (PC-3 prostate) 14.1 µM | GI50 (RPMI-8226 leukemia) 3.34 µM | GI50 (RXF 393 renal) 23.5 µM | GI50 (SF-268 CNS) 2.76 µM | GI50 (SK-MEL-2 melanoma) 1.88 µM | GI50 (SK-MEL-28 melanoma) 2.08 µM | GI50 (SK-MEL-5 melanoma) 14.9 µM | GI50 (SK-OV-3 ovarian) 46 µM | GI50 (SN12C renal) 19.6 µM | GI50 (SNB-19 CNS) 18.4 µM | GI50 (SNB-75 CNS) 27.8 µM | GI50 (T-47D breast) 3.89 µM | GI50 (U251 CNS) 11.4 µM | GI50 (UACC-257 melanoma) 1.11 µM | GI50 (UACC-62 melanoma) 0.61 µM | GI50 (UO-31 renal) 10.5 µM
79.9 µM: TGI (OVCAR-4 ovarian)
> 53.9 µM: TGI (NCI-H522 lung)
> 65.1 µM: TGI (NCI-H460 lung)
44.5 µM: TGI (U251 CNS)
82.9 µM: TGI (RXF 393 renal)
> 66.8 µM: TGI (KM12 colon)
> 92.8 µM: TGI (ACHN renal)
71.2 µM: TGI (HOP-92 NSCLC)
> 95.5 µM: TGI (A549 NSCLC)
0.438 µM: TGI (HCC-2998 colon)
> 78.7 µM: TGI (CCRF-CEM leukemia)
> 78.2 µM: TGI (EKVX NSCLC)
